# “Also recorded” adds a separate entry of the source. Where no end group is shown, it is not given here. [ ]: non-standard residue; d: D form. Aib = CC(C)(N)C(=O)O
# Tests used:
# Format in all cases: in vivo, human
# [1] = Phase I single-ascending dose study, safety, tolerability, PK and PD, single SC injection; conditions: for mean daily fasting glucose level by day 7: healthy subjects (placebo 78.7)
# Experimental: A Phase I, randomized, placebo-controlled, sequential, single-ascending, two period, study was performed in healthy male subjects to evaluate the safety, tolerability, pharmacokinetic (PK), and pharmacodynamic (PD) properties of extended half-life GLP-1/GIP coagonist peptide. Healthy adult male subjects (about 18 to 55 years of age) who were in general good health based on medical history, physical examination, ECG, and routine laboratory tests (e.g., blood, chemistry, hematology, urinalysis, and drug screen) with a body mass index between 20 kg/m^2 and 30 kg/m^2 were selected for the study. The extended half-life GLP-1/GIP coagonist peptide tested in all of the Examples was SEQ ID NO: 153.
# The subjects were randomized into cohorts.
# Following an overnight fast of at least 10 hours, the subjects received a single dose of the study drug or placebo as a subcutaneous (SC) injection in the abdomen. Blood samples were collected for fasting insulin, glucose, and glucagon levels pre-dose (i.e., within 30 minutes prior to dosing) on Day 1 and on Days 2, 3, 4, 5, 6, and 7. Plasma samples for pharmacokinetic analysis were collected pre-dose and at 0.5, 1, 2, 4, 8, and 12 hours post-dose on Day 1 and on Days 2, 3, 4, 5, 6, 7, 14, 28, and 35. The subjects were monitored through Day 35 for adverse events, weight, and vital signs.
# [2] = system: beta cell response to a glucose load; test: Phase I two-part study, beta cell response to graded glucose infusion; conditions: for LS mean change in insulin secretion rate at each glucose infusion rate, placebo vs treatment: 72 hours after dosing, p<0.001
# Experimental: (§1) A Phase I, randomized, placebo-controlled, positive-controlled two-part study was performed in healthy male and female subjects to evaluate the effect of a range of doses on beta cell response to a glucose load and to assess the effect of these doses on gastric emptying. Beta cell function was assessed by calculation of prehepatic insulin secretion in response to a graded glucose infusion. Gastric emptying was assessed by measurement of plasma appearance of ingested acetaminophen.
# (§2) During Part 2, subjects in Cohort 2 received placebo on Day 1, followed by 8 mg of the extended half-life GLP-1/GIP coagonist peptide on Day 2. Subjects in Cohort 3 received placebo on Day 1, followed by 4 mg of the extended half-life GLP-1/GIP coagonist peptide on Day 2. Subjects in Cohort 4 received placebo on Day 1, followed by 16 mg of the extended half-life GLP-1/GIP coagonist peptide on Day 2.
# (§3) Blood samples for glucose, C-peptide, insulin, and safety laboratory tests were drawn at −120, −15, and −10 minutes. At −10 minutes, subjects ingested 1000 mg acetaminophen elixir with 240 mL water. At 0 minutes, a step-wise infusion of glucose (20% dextrose) was started, a second SC injection of placebo was administered, and blood samples for glucose, C-peptide, insulin, and safety laboratory tests were drawn. Glucose was infused for a total of 2.5 hours at a rate of 2, 4, 6, 8, and 12 mg/kg/min. Each level of glucose infusion was maintained for 30 minutes. Blood samples for glucose, C-peptide, and insulin were drawn again at 10, 20, and 30 minutes during each 30-minute infusion period. Blood samples for plasma acetaminophen concentration were drawn at −10, 30, 60, 90, 120, 150, 180, 210, 240, 300, and 480 minutes.
# (§4) Blood samples for glucose, C-peptide, and insulin were drawn at −120, −15, and −10 minutes. At −10 minutes, subjects ingested 1000 mg acetaminophen elixir with 240 mL water. […] Glucose was infused for a total of 2.5 hours at a rate of 2, 4, 6, 8, and 12 mg/kg/min. Each level of glucose infusion was maintained for 30 minutes. […] Blood samples for glucose, C-peptide, and insulin were drawn at 10, 20, and 30 minutes during each 30-minute infusion period. Blood samples for plasma acetaminophen concentration were drawn at −10, 30, 60, 90, 120, 150, 180, 210, 240, 300, and 480 minutes.
# (§5) Blood samples for glucose, C-peptide, insulin, and safety laboratory tests were drawn at −15 and −10 minutes. At −10 minutes, subjects ingested 1000 mg acetaminophen elixir with 240 mL water. At 0 minutes, a step-wise infusion of glucose (20% dextrose) was started and blood samples for glucose, C-peptide, and insulin were drawn. Glucose was infused for a total of 2.5 hours at a rate of 2, 4, 6, 8, and 12 mg/kg/min. Each level of glucose infusion was maintained for 30 minutes. Blood samples for glucose, C-peptide, and insulin were drawn again at 10, 20, and 30 minutes during each 30-minute infusion period. Blood samples for plasma acetaminophen concentration were drawn at −10, 30, 60, 90, 120, 150, 180, 210, 240, 300, and 480 minutes.
# On Day 2, following an overnight fast of 10 hours, a blood sample for glucose, C-peptide, and insulin was drawn at −10 minutes. Subjects received an injection of extended half-life GLP-1/GIP coagonist peptide at 0 minutes. Subjects in Cohort 2 received 8 mg of extended half-life GLP-1/GIP coagonist peptide, subjects in Cohort 3 received 4 mg of extended half-life GLP-1/GIP coagonist peptide, and subjects in Cohort 4 received 16 mg of extended half-life GLP-1/GIP coagonist peptide. At 0 minutes, a blood sample for extended half-life GLP-1/GIP coagonist peptide concentration, C-peptide, insulin, glucose, and safety laboratory tests was drawn.
# At −10 minutes, subjects ingested 1000 mg acetaminophen elixir with 240 mL water. […] Glucose was infused for a total of 2.5 hours at a rate of 2, 4, 6, 8, and 12 mg/kg/min. Each level of glucose infusion was maintained for 30 minutes.
# gastric emptying = test: Phase I two-part study, gastric emptying by plasma appearance of ingested acetaminophen
# Experimental: as §1, §2, §3, §4, §5
# At −10 minutes, subjects ingested 1000 mg acetaminophen elixir with 240 mL water. […] Glucose was infused for a total of 2.5 hours at a rate of 2, 4, 6, 8, and 12 mg/kg/min. Each level of glucose infusion was maintained for 30 minutes. […] Blood samples for plasma acetaminophen concentration were drawn at −10, 30, 60, 90, 120, 150, 180, 210, 240, 300, and 480 minutes.
# [3] = 4 mg, 8 mg, 16 mg, graded glucose infusion
# [4] = 4 mg, 8 mg, 16 mg, 72 hours after dosing
substance,measurement,setting,value
extended half-life GLP-1/GIP coagonist peptide: The extended half-life GLP-1/GIP coagonist peptide tested in all of the Examples was SEQ ID NO: 153 (Y[Aib]EGTFTSDYSIYLDKQAA[Aib]EFVC(PEG 40 kDa)WLLAGGPSSGAPPPSK-NH2),AUC (AUC0-144),"[1]; 0.1 mg single SC dose, plasma","12,349 pM·hr"
same,Cmax,"[1]; 0.1 mg single SC dose, plasma",0.183 nM
same,AUC (AUC0-144),"[1]; 8 mg single SC dose, plasma","1,382,376 pM·hr"
same,Cmax,"[1]; 8 mg single SC dose, plasma",13 nM
same,mean daily fasting glucose level by day 7,[1]; 16 mg dose,76.5 mg/dL
same,time to maximum observed plasma concentration (Tmax),[1]; 16 mg single SC dose,112.5 h
same,mean daily fasting glucose level by day 7,[1]; 24 mg dose,72.7 mg/dL
same,time to maximum observed plasma concentration (Tmax),[1]; 24 mg single SC dose,56.0 h
same,mean daily fasting glucose level by day 7,[1]; 32 mg dose,71.7 mg/dL
same,time to maximum observed plasma concentration (Tmax),[1]; 32 mg single SC dose,80.0 h
same,AUC (AUC0-last),"[1]; 32 mg single SC dose, plasma","12,582 nM·hr"
same,Cmax,"[1]; 32 mg single SC dose, plasma",54.8 nM
same,absolute bioavailability,[1]; SC injection,100%
same,dose proportionality of AUC and Cmax,[1]; doses ranging from 0.1 mg to 32 mg,dose proportional
same,"dose-related trends for fasting insulin, glucose and glucagon levels",[1]; healthy subjects,No dose-related trends
same,apparent t1/2,"[1]; plasma, single SC dose, healthy male subjects",approximately 5 days
same,safety and tolerability,"[1]; single SC doses 0.1 mg to 32 mg, healthy male subjects","generally safe and well tolerated; also recorded: well tolerated and not associated with adverse events, clinically important laboratory findings, or ECG findings"
same,"LS mean change in C peptide, comparison between dose groups","[2]; 4 mg vs 8 mg groups, p=0.0055",0.01 ng/mL per mg/dL
same,"LS mean change in insulin secretion rate, comparison between dose groups","[2]; 4 mg vs 8 mg groups, p=0.0067",0.01 μIU/mL per mg/dL
same,"LS mean change in insulin, comparison between dose groups","[2]; 4 mg vs 8 mg groups, p=0.0251",0.09 μIU/mL per mg/dL
same,"LS mean change in C peptide, comparison between dose groups","[2]; 4 mg vs 16 mg groups, p<0.0001",0.03 ng/mL per mg/dL
same,"LS mean change in insulin secretion rate, comparison between dose groups","[2]; 4 mg vs 16 mg groups, p<0.0001",0.04 μIU/mL per mg/dL
same,"LS mean change in insulin, comparison between dose groups","[2]; 4 mg vs 16 mg groups, p<0.0001",0.17 μIU/mL per mg/dL
same,C-peptide level in comparison to placebo,[2]; [3],"dose dependent, dose proportional, increase"
same,insulin secretion rate (ISR) in comparison to placebo,[2]; [3],"dose dependent, dose proportional, increase"
same,"LS mean change in insulin secretion rate at each glucose infusion rate, placebo vs treatment",[2]; 4 mg,0.03 μIU/mL
same,"LS mean change in C peptide at each glucose infusion rate, placebo vs treatment","[2]; 4 mg, p<0.0001",0.02 ng/mL per mg/dL
same,"LS mean change in insulin at each glucose infusion rate, placebo vs treatment","[2]; 4 mg, p<0.0001",0.27 μIU/mL per mg/dL
same,"LS mean change in C peptide, comparison between dose groups","[2]; 8 mg vs 16 mg groups, p<0.0001",0.02 ng/mL per mg/dL
same,"LS mean change in insulin secretion rate, comparison between dose groups","[2]; 8 mg vs 16 mg groups, p<0.0001",0.03 μIU/mL per mg/dL
same,"LS mean change in insulin, comparison between dose groups","[2]; 8 mg vs 16 mg groups, p=0.0316",0.08 μIU/mL per mg/dL
same,"LS mean change in insulin secretion rate at each glucose infusion rate, placebo vs treatment",[2]; 8 mg,0.04 μIU/mL
same,"LS mean change in C peptide at each glucose infusion rate, placebo vs treatment","[2]; 8 mg, p<0.0001",0.03 ng/mL per mg/dL
same,"LS mean change in insulin at each glucose infusion rate, placebo vs treatment","[2]; 8 mg, p<0.0001",0.35 μIU/mL per mg/dL
same,increase in insulin secretion rate,"[2]; 16 mg (maximum dose), vs placebo, p=0.001",approximately 44%
same,change in glucose levels between the 8 mg/kg/min and 12 mg/kg/min infusion rates,[2]; 16 mg and 8 mg groups,no increases in glucose levels
same,"LS mean change in insulin secretion rate at each glucose infusion rate, placebo vs treatment",[2]; 16 mg,0.07 μIU/mL
same,"LS mean change in C peptide at each glucose infusion rate, placebo vs treatment","[2]; 16 mg, p<0.0001",0.05 ng/mL per mg/dL
same,"LS mean change in insulin at each glucose infusion rate, placebo vs treatment","[2]; 16 mg, p<0.0001",0.43 μIU/mL per mg/dL
same,glucose levels compared to placebo group,"[2]; all dose groups, all glucose infusion rates",lower glucose levels than the placebo group
same,Cmax of plasma acetaminophen,gastric emptying; [4],trend toward lower Cmax at a higher dose
same,Tmax of plasma acetaminophen compared to placebo,gastric emptying; [4],not significantly different from placebo
same,total acetaminophen absorbed (AUC0-4 hr) compared to placebo,gastric emptying; [4],not significantly different from placebo
same,delay in the absorption of acetaminophen,"gastric emptying; 4 mg, 8 mg, 16 mg, 72 hours after dosing, 1000 mg acetaminophen",not associated with a significant delay
same,effect on gastric emptying,gastric emptying; doses that increase insulin secretion in response to a glucose infusion,does not delay gastric emptying
